Results published in US8518958B2, “Pyrido [2,3-D] pyrimidines and their use as kinase inhibitors” (Forma Therapeutics, Inc., priority 2006, dated 2013).

Experiments:
[1] = molecular target: C-Raf Raf-1 (truncated), active (Homo sapiens, UniProt P04049, Y340D/Y341D); assay: C-Raf kinase inhibition (MAPH assay / IMAP assay); conditions: read-out: Biochemical IC50 C-Raf
Source text: We characterized the in vitro inhibitory activity against protein kinases of compounds of the present invention by determining their IC50 values (see Table 2).
Kinase: C-Raf Raf-1 (truncated), active (Upstate; cat. no. 14-352)
Reaction Temperature: room temperature
Assay Plate: 96 well U bottom plate (Greiner, 650161)
MultiScreen-PH Plate: 96 well MAPH Filter Plates (Millipore, MAPHNOB50)
Filter Washing Solution: 0.75% H3PO4
Scintillation Liquid: Supermix Liquid Scintillator (PerkinElmer, 1200-439)
Negative Control (C−): 100 mM EDTA, no inhibitor
Positive Control (C+): no inhibitor
Reaction Buffer (Final Concentration):
Final Assay Concentrations:
Kinase: Use kinase conc. yielding 10% ATP turnover as determined in titration experiment.
Adenosine 5′-[γ-^33P]triphosphate: 12.5 μCi/ml (Amersham Biosciences, BF1000)
Substrate: Myelin Basic Protein 57.8 μM (Invitrogen, 13228-010)
Pipetting Sequence: • 1) Add 10 μl 4-fold concentrated substrate+4-fold concentrated ATP in 3-fold concentrated reaction buffer to each well of assay plate • 2) Add 10 μl […] concentrated inhibitor in 4% DMSO in H2O to each well except to C− and C+ wells (starting point: final inhibitor concentration 10 μM; IC50 determination based on dilution series) • 3) Add 10 μl 4% DMSO in H2O to C− and C+ wells • 4) Add 10 μl 500 mM EDTA in H2O to C− wells • 5) Add 10 μl 50 μCi/ml adenosine 5′-[γ-^33P]triphosphate in H2O to each well • 6) Add 10 μl […] concentrated kinase in Reaction Buffer to each well • 7) Incubate 1 hr at room temperature • 8) Add 10 μl 50 mM EDTA in H2O to each well except to C− wells • 9) Prepare MAPH plates by adding 200 μl 0.75% H3PO4 to each well • 10) Exhaust 0.75% H3PO4 using Millipore vacuum station • 11) Add 60 μl 0.75% H3PO4 to each well of MAPH filter plate • 12) Transfer 30 μl sample per well from assay plate to corresponding well of MAPH filter plate • 13) Incubate 30 min at room temperature • 14) Wash each well of MAPH filter plates 3× with 200 μl 0.75% H3PO4 using Millipore vacuum station • 15) Add 20 μl scintillation liquid to each well of MAPH filter plate • 16) Seal MAPH filter plate • 17) Store MAPH filter plate 30 min in darkness • 18) Quantify radioactivity using scintillation counter (MicroBeta, Perkin-Elmer)
Reaction Volume: 8.0108 μl
IMAP Incubation Time: 60 min
Assay Plate: 384 well U bottom, PP, black, low volume (Corning, 3676)
Compound Plate: 384 well U bottom, PS (Falcon, 3995)
IMAP Binding Buffer A: Molecular Devices, R7282
IMAP Binding Buffer B: Molecular Devices, R7283
IMAP Binding Reagent: Molecular Devices, R7207
Negative Control (C−): no kinase, no inhibitor
Reation buffer: 20 mM Hepes, pH 7.5 • 1 mM DTT • 10 mM MnCl2 • 0.01% Brij35
Kinase: Kinase conc. yielding 50% substrate turnover as determined in titration experiment • c-Raf (Upstate 14-352)
Substrate: 5F1-SGQLIDSMANSFV-NH2 400 nM (jpt Peptide Technologies GmbH, Berlin, Germany)
IMAP Binding Solution: 75% IMAP Binding Buffer A • 25% IMAP Binding Buffer B • IMAP Binding Reagent 1:800
Pipetting Sequence: • 1) Add 6 μl 1.33-fold concentrated substrate+1.33-fold concentrated ATP in 1-fold concentrated reaction buffer to each well of assay plate • 2) Add 10.8 nl 740-fold concentrated inhibitor in 100% DMSO to each well except to C− and C+ wells using pintool (CyBio, Jena, Germany) (starting point: final inhibitor concentration 10 μM; IC50 determination based on dilution series) • 3) Add 10.8 nl 100% DMSO to C− and C+ wells using pintool • 4) Add 2 μl reaction buffer to C− wells • 5) Add 2 μl 4-fold concentrated kinase in reaction buffer to each well except C− wells • 6) Incubate according to reaction time at room temperature • 7) Add 15 μl IMAP binding solution to each well • 8) Incubate according to IMAP incubation time at room temperature • 9) Measure fluorescence polarization (Analyst GT, Molecular Devices)

B-Raf delta1-415 = B-Raf delta1-415 (Homo sapiens, UniProt P15056); assay: B-Raf kinase inhibition (MAPH filter plate, 33P-ATP, MEK1 substrate); conditions: read-out: Biochemical IC50 B-Raf
Chain of B-Raf delta1-415 (P15056 416-766): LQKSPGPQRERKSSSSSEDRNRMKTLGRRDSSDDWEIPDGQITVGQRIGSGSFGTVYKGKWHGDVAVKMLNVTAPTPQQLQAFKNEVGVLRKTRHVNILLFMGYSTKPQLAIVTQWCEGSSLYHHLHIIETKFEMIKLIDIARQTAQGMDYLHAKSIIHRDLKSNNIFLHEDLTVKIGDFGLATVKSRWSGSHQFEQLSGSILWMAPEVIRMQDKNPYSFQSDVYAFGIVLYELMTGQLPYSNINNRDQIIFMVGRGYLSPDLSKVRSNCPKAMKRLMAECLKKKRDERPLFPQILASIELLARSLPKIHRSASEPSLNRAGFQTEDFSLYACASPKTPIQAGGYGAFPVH
Summary of the method: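 Radiometric filter-binding assay with B-Raf delta1-415 at a level giving 50% turnover, MEK1 substrate and 33P-ATP (12.5 μCi/ml) in 20 mM Mops pH 7.0 with Mg/Mn, 1 h at room temperature. Inhibitor dilution series from 10 μM; EDTA-stopped reactions captured on phosphocellulose filters, counted by scintillation for IC50.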

HT-29 tumor cells = assay: Anti-proliferative activity, SRB assay; type: cell-based, human; conditions: Homo sapiens, HT-29, 72 h, 72 hours exposure, read-out: CELLULAR IC50 HT-29
Summary of the method: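 Cells at 3,000-15,000/well, plated 24 h before compound, exposed to a concentration range for 72 hours. Proliferation measured by SRB staining after cold TCA fixation, absorbance at OD570; IC50 estimated from % inhibition versus DMSO-treated cells.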

Chain of C-Raf Raf-1 (truncated), active (P04049 306-648 Y340D/Y341D): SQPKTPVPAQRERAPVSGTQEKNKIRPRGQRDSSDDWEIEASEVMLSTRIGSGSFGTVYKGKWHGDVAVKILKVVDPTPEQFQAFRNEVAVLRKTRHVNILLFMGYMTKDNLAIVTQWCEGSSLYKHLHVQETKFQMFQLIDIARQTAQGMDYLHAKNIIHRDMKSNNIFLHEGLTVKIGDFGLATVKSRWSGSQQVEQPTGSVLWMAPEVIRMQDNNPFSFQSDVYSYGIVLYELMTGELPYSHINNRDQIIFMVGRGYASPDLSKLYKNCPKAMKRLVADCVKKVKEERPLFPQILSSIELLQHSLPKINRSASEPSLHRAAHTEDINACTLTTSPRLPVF

| IC50 [1] [nM] | IC50 (B-Raf delta1-415) [nM] | IC50 (HT-29 tumor cells) [nM] | Structure (SMILES) |
| --- | --- | --- | --- |
| < 100 | < 500 | < 1000 | NCCCCCOn1c(=O)c(-c2c(Cl)cccc2Cl)cc2cnc(Nc3ccccc3)nc21 [Compound 56, 8-(5-Aminopentyl)oxy-6-(2,6-dichlorophenyl)-2-phenylamino-pyrido[2,3-d]pyrimidin-7-one] |
| < 100 | < 500 | < 10000 | COn1c(=O)c(-c2c(Cl)cccc2Cl)cc2cnc(Nc3cc(CO)ccc3C)nc21 [Compound 45, 6-(2,6-Dichlorophenyl)-2-((2-methyl-5-hydroxymethylphenyl)-amino)-8-methoxy-pyrido[2,3-d]pyrimidin-7-one] |
| < 100 | < 5000 | > 10000 | COc1ccc(OC)c(-c2cc3cnc(Nc4cccc(CO)c4)nc3n(OC)c2=O)c1 [Compound 44, 6-(2,5-Dimethoxyphenyl)-2-(3-hydroxymethylphenylamino)-8-methoxy-pyrido[2,3-d]pyrimidin-7-one] |
| < 500 | < 100 | < 1000 | CNCCOn1c(=O)c(-c2c(Cl)cccc2Cl)cc2cnc(Nc3cccc(OC)c3)nc21 [Compound 74, 6-(2,6-Dichlorophenyl)-8-(2-methylaminoethyl)oxy-2-(3-methoxyphenyl)amino-pyrido[2,3-d]pyrimidin-7-one] |
| < 500 | < 500 | < 10000 | COn1c(=O)c(-c2ccc(Cl)c(Cl)c2)cc2cnc(Nc3cccc(S(N)(=O)=O)c3)nc21 [Compound 64, 2-(3-Aminosulfonlyphenyl)-amino-6-(3,4-dichlorophenyl)-8-methoxy-pyrido[2,3-d]pyrimidin-7-one] |
| < 100 | < 500 | < 1000 | COn1c(=O)c(-c2cc(NC(=O)c3ccccc3)ccc2Cl)cc2cnc(Nc3ccc(N4CCN(C)CC4)cc3)nc21 [Compound 9, 6-(5-Benzoylamino-2-chloro-phenyl)-8-methoxy-2-(4-(4-methylpiperazino)-phenylamino)-pyrido[2,3-d]pyrimidin-7-one] |
| < 500 | < 500 | < 1000 | NCCOCCOn1c(=O)c(-c2c(Cl)cccc2Cl)cc2cnc(Nc3ccccc3)nc21 [Compound 58, 8-(2-(2-Aminoethyloxy)ethyl)oxy-6-(2,6-dichlorophenyl)-2-phenylamino-pyrido[2,3-d]pyrimidin-7-one] |
| > 10000 | > 10000 | < 10000 | COn1c(=O)c(C(=O)Nc2ccccc2)cc2cnc(Nc3ccccc3)nc21 [Compound 61, 8-Methoxy-2-phenylamino-6-phenylaminocarbonyl-pyrido[2,3-d]pyrimidin-7-one] |
| < 100 | < 100 | < 1000 | COn1c(=O)c(-c2c(Cl)cccc2Cl)cc2cnc(Nc3cccc(S(=O)(=O)CCO)c3)nc21 [Compound 10, 6-(2,6-Dichlorophenyl)-8-methoxy-2-(3-(2-hydroxyethylsulfonyl)phenylamino)-pyrido[2,3-d]pyrimidin-7-one] |
| < 100 | < 500 | < 10000 | COn1c(=O)c(-c2c(Cl)cccc2Cl)cc2cnc(N)nc21 [Compound 46, 2-Amino-6-(2,6-dichlorophenyl)-8-methoxy-pyrido[2,3-d]pyrimidin-7-one] |
| < 100 | < 100 | < 1000 | COn1c(=O)c(-c2c(Cl)cccc2Cl)cc2cnc(Nc3ccncc3)nc21 [Compound 13, 6-(2,6-Dichlorophenyl)-8-methoxy-2-(pyrid-4-ylamino)-pyrido[2,3-d]pyrimidin-7-one] |
| < 100 | > 1000 | < 10000 | COn1c(=O)c(-c2cc(NC(=O)C(C)C)ccc2Cl)cc2cnc(Nc3ccccc3)nc21 [Compound 32] |
| < 500 | > 1000 | < 1000 | COn1c(=O)c(-c2cc(NC(=O)c3cccc(C(F)(F)F)c3)ccc2Cl)cc2cnc(Nc3ccccc3)nc21 [Compound 35] |
| < 100 | < 500 | < 10000 | COn1c(=O)c(-c2cc(NC(=O)c3ccccc3)ccc2Cl)cc2cnc(Nc3ccccc3)nc21 [Compound 29] |
| < 100 | < 500 | < 1000 | COn1c(=O)c(-c2ccccc2Cl)cc2cnc(Nc3cccc(S(N)(=O)=O)c3)nc21 [Compound 6, 6-(2-Chlorophenyl)-8-methoxy-2-(3-sulfamoylphenylamino)-pyrido[2,3-d]pyrimidin-7-one] |
| < 1000 | > 1000 | < 10000 | COc1ccccc1-c1cc2cnc(Nc3ccc(OCCN(C)C)cc3)nc2n(OC)c1=O [Compound 50, 2-(4-(2-Dimethylaminoethoxy)-6-(2-methoxyphenyl)-phenylamino)-8-methoxy-pyrido[2,3-d]pyrimidin-7-one] |
| < 100 | < 500 | < 1000 | COc1cccc(Nc2ncc3cc(-c4c(Cl)cccc4Cl)c(=O)n(OCCN)c3n2)c1 [Compound 70, 8-(2-Aminoethyl)oxy-6-(2,6-dichlorophenyl)-2-(3-methoxyphenyl)amino-pyrido[2,3-d]pyrimidin-7-one] |
| < 100 | < 100 | < 1000 | COn1c(=O)c(-c2c(Cl)cccc2Cl)cc2cnc(Nc3ccc(S(C)(=O)=O)cc3)nc21 [Compound 11, 6-(2,6-Dichlorophenyl)-8-methoxy-2-(4-methylsulfonylphenylamino)-pyrido[2,3-d]pyrimidin-7-one] |
| < 100 | > 1000 | < 10000 | COn1c(=O)c(-c2cc(NC(=O)c3cccnc3)ccc2Cl)cc2cnc(Nc3ccccc3)nc21 [Compound 31] |
| < 500 | < 100 | < 1000 | COc1cccc(Nc2ncc3cc(-c4c(Cl)cccc4Cl)c(=O)n(OCCN(C)C)c3n2)c1 [Compound 77, 6-(2,6-Dichlorophenyl)-8-(2-dimethylaminoethyl)oxy-2-(3-methoxyphenyl)amino-pyrido[2,3-d]pyrimidin-7-one] |
| < 500 | < 500 | < 1000 | NCCCOn1c(=O)c(-c2c(Cl)cccc2Cl)cc2cnc(Nc3ccccc3)nc21 [Compound 55, 8-(3-Aminopropyl)oxy-6-(2,6-dichlorophenyl)-2-phenylamino-pyrido[2,3-d]pyrimidin-7-one] |
| < 100 | < 1000 | < 1000 | COc1cccc(Nc2ncc3cc(-c4ccccc4Cl)c(=O)n(OC)c3n2)c1 [Compound 7, 6-(2-Chlorophenyl)-8-methoxy-2-(3-methoxyphenylamino)-pyrido[2,3-d]pyrimidin-7-one] |
